Experimental data: patent publication US10752609B2, “GSK-3 inhibitors” (priority 2016, dated 2020)
Like-named read-outs stand apart in the source and are kept apart here.

Key:
[1] = molecular target: GSK3α (Homo sapiens, UniProt P49840); test: GSK3α kinase assay (Caliper LabChip3000 mobility shift, fluoresceinated peptide substrate)
Procedure: The kinase assay was performed in V-bottom 384-well plates. […] The reaction was incubated at room temperature for 20 hours and terminated by adding 45 μl of 35 mM EDTA to each sample. The reaction mixture was analyzed on the Caliper LabChip3000 (Caliper, Hopkinton, Mass.) by electrophoretic separation of the unphosphorylated substrate and phosphorylated product. […] Compounds were dissolved at 10 mM in dimethylsulfoxide (DMSO) and evaluated at eleven concentrations. IC50 values were derived by non-linear regression analysis.

[2] = test system: pTau; test: pTau assay (no method described); assay type: cell-based
[3] = molecular target: GSK3β (Homo sapiens, UniProt P49841); test: GSK3β kinase assay (Caliper LabChip3000 mobility shift, fluoresceinated peptide substrate); assay type: biochemical
[4] = 250 pM enzyme, 20 uM ATP, 1.5 uM peptide, 20 hours room temperature, first value of cell GSK3β/GSK3α, read-out: GSK3β (nM), IC50

GSK3β, sequence (P49841 whole entry, species assumed): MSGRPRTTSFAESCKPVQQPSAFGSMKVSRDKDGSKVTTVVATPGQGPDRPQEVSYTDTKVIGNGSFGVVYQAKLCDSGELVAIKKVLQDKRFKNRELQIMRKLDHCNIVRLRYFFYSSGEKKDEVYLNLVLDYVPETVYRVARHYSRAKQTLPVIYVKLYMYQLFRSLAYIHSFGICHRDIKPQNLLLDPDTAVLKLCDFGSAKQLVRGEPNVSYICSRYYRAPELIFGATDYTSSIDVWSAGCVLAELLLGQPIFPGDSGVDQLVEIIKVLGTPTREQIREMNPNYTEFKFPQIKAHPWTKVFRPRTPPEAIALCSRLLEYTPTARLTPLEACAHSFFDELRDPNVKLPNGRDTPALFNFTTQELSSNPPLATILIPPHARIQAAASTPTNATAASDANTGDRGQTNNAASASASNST
GSK3α, sequence (P49840 whole entry, species assumed): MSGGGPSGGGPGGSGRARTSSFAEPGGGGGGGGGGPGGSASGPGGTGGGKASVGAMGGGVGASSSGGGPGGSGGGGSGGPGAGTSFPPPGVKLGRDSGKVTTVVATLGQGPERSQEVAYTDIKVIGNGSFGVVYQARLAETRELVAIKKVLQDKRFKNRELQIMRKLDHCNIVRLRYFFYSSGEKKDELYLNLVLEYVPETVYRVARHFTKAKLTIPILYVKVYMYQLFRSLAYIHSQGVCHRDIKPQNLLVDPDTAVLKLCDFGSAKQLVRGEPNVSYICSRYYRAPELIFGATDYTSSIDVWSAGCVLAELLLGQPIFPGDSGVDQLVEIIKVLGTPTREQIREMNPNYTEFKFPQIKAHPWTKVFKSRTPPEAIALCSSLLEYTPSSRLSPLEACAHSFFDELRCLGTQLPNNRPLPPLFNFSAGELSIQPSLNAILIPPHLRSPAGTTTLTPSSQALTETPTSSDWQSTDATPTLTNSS

Row | SMILES | IC50 [1] [nM] | IC50 [2] [nM] | IC50 [3, 4] [nM] | IC50 [3] [nM]
1 | O=C(Nc1cnccc1-c1ccccc1)c1ccnc(Nc2cncc3c2CCCC3)n1 [Example 91, N-(4-Phenylpyridin-3-yl)-2-((5,6,7,8-tetrahydroisoquinolin-4-yl)amino)pyrimidine-4-carboxamide] | 2.3 | 270 | 3.5 | 
2 | O=C(Nc1cnc(F)cc1N1CCOCC1)c1ccnc(NC2COC2)n1 [Example 175, N-(6-Fluoro-4-morpholinopyridin-3-yl)-2-(oxetan-3-ylamino)pyrimidine-4-carboxamide] | 27 | 2100 | 46 | 
3 | O=C(Nc1cncc(-c2ccccc2F)c1)c1ccnc(NCC2CC2)n1 [Example 186, 2-((Cyclopropylmethyl)amino)-N-(5-(2-fluorophenyl)pyridin-3-yl)pyrimidine-4-carboxamide] | 9.9 | 5000 | 6 | 
4 | O=C(Nc1cnccc1-c1ccccc1)c1ccnc(NC2CCOCC2)n1 [Example 88, N-(4-Phenylpyridin-3-yl)-2-((tetrahydro-2H-pyran-4-yl)amino)pyrimidine-4-carboxamide] | 1.4 | 150 | 2.6 | 
5 | O=C(Nc1cncnc1N1CCOCC1)c1ccnc(NCC2CC2)n1 [Example 205, 2-((Cyclopropylmethyl)amino)-N-(4-morpholinopyrimidin-5-yl)pyrimidine-4-carboxamide] | 22 | 1800 |  | 19
6 | O=C(Nc1cnccc1OCC(F)(F)F)c1ccnc(Nc2ccc(C(F)(F)F)nc2)n1 [Example 64, N-(4-(2,2,2-Trifluoroethoxy)pyridin-3-yl)-2-((6-(trifluoromethyl)pyridin-3-yl)amino)pyrimidine-4-carboxamide] | 0.19 | 8.5 | 0.2 | 
7 | O=C(Nc1cnccc1-c1ccccc1)c1ccnc(Nc2ccc(OC(F)F)cc2)n1 [Example 13, 2-((4-(Difluoromethoxy)phenyl)amino)-N-(4-phenylpyridin-3-yl)pyrimidine-4-carboxamide] | 0.3 | 60 | 0.45 | 
8 | O=C(Nc1cnc(F)cc1N1CCOCC1)c1ccnc(Nc2ccc(Cl)cc2)n1 [Example 170] | 0.21 | 48 | 0.34 | 
9 | O=C(Nc1cnccc1-c1ccc(F)cc1)c1ccnc(Nc2ccc(OC(F)(F)F)cc2)n1 [Example 48, N-(4-(4-Fluorophenyl)pyridin-3-yl)-2-((4-(trifluoromethoxy)phenyl)amino)pyrimidine-4-carboxamide] | 1.3 | 170 | 1.5 | 
10 | O=C(Nc1cnccc1-c1ccccc1)c1ccnc(Nc2ccc(F)cc2)n1 [Example 5, 2-((4-Fluorophenyl)amino)-N-(4-phenylpyridin-3-yl)pyrimidine-4-carboxamide] | 0.19 | 37 | 0.26 | 
11 | O=C(Nc1cnccc1OCC(F)(F)F)c1ccnc(NCc2ccc(C(F)(F)F)cc2)n1 [Example 134, N-(4-(2,2,2-Trifluoroethoxy)pyridin-3-yl)-2-((4-(trifluoromethyl)benzyl)amino)pyrimidine-4-carboxamide] | 5.4 | 310 | 2.8 | 
12 | O=C(Nc1cnccc1OCC(F)(F)F)c1ccnc(Nc2ccc3cnccc3c2)n1 [Example 106, 2-(Isoquinolin-6-ylamino)-N-(4-(2,2,2-trifluoroethoxy)pyridin-3-yl)pyrimidine-4-carboxamide] | 0.09 | 1.9 | 0.11 | 
13 | Cc1cc(C#N)ccc1Nc1nccc(C(=O)Nc2cnccc2-c2ccccc2)n1 [Example 21, 2-((4-Cyano-2-methylphenyl)amino)-N-(4-phenylpyridin-3-yl)pyrimidine-4-carboxamide] | 0.35 | 97 | 0.43 | 
14 | O=C(Nc1cncnc1)c1ccnc(NCC2CC2c2ccc(F)cc2)n1 (stereo not drawn) [Example 198, 2-(((2-(4-Fluorophenyl)cyclopropyl)methyl)amino)-N-(pyrimidin-5-yl)pyrimidine-4-carboxamide] | 28 | 6500 | 35 | 
15 | O=C(Nc1cncnc1N1CCOCC1)c1ccnc(NCC2CCOCC2)n1 [Example 206, N-(4-Morpholinopyrimidin-5-yl)-2-(((tetrahydro-2H-pyran-4-yl)methyl)amino)pyrimidine-4-carboxamide] | 99 | 4700 | 74 | 
16 | CCNc1nccc(C(=O)Nc2cnccc2OCC(F)(F)F)n1 [Example 123, 2-(Ethylamino)-N-(4-(2,2,2-trifluoroethoxy)pyridin-3-yl)pyrimidine-4-carboxamide] | 4.5 | 55 | 0.92 | 
17 | O=C(Nc1cnccc1C1CCOCC1)c1ccnc(Nc2ccc(OC(F)F)nc2)n1 [Example 80, 2-((6-(Difluoromethoxy)pyridin-3-yl)amino)-N-(4-(tetrahydro-2H-pyran-4-yl)pyridin-3-yl)pyrimidine-4-carboxamide] | 0.65 | 86 | 2.4 | 

Row | SMILES | IC50 [1] [nM] | IC50 [2] [nM] | IC50 [3, 4] [nM] | IC50 [3] [nM]
18 | CC(Nc1nccc(C(=O)Nc2cnccc2OCC(F)(F)F)n1)c1ccccc1 (stereo not drawn) [Example 138, 2-((1-Phenylethyl)amino)-N-(4-(2,2,2-trifluoroethoxy)pyridin-3-yl)pyrimidine-4-carboxamide] | 3.2 | 430 | 6.1 | 
19 | O=C(Nc1cnccc1-c1ccccc1)c1ccnc(NC2CCCOC2)n1 (stereo not drawn) [Example 94, N-(4-Phenylpyridin-3-yl)-2-((tetrahydro-2H-pyran-3-yl)amino)pyrimidine-4-carboxamide] | 3.5 | 210 | 5.1 | 
20 | Cc1cc(Nc2nccc(C(=O)Nc3cnccc3-c3ccccc3)n2)c(C)nc1OC(F)F [Example 41, 2-((6-(Difluoromethoxy)-2,5-dimethylpyridin-3-yl)amino)-I-(4-phenylpyridin-3-yl)pyrimidine-4-carboxamide] | 1.9 | 290 | 1.6 | 
21 | O=C(Nc1cnccc1N1CCC(F)(F)CC1)c1ccnc(Nc2ccccc2)n1 [Example 3, N-(4-(4,4-Difluoropiperidin-1-yl)pyridin-3-yl)-2-(phenylamino)pyrimidine-4-carboxamide] | 0.15 | 8.5 | 0.2 | 
22 | O=C(Nc1cnccc1-c1ccc(F)cc1)c1ccnc(Nc2ccc(OC(F)F)cc2)n1 [Example 49, 2-((4-(Difluoromethoxy)phenyl)amino)-N-(4-(4-fluorophenyl)pyridin-3-yl)pyrimidine-4-carboxamide] | 0.29 | 74 | 0.48 | 
23 | O=C(Nc1cncnc1)c1ccnc(Nc2ccccc2)n1 [Example 201, 2-(Phenylamino)-N-(pyrimidin-5-yl)pyrimidine-4-carboxamide] | 45 | 4200 | 71 | 
24 | CC(C)(C)CNc1nccc(C(=O)Nc2cnc(F)cc2N2CCOCC2)n1 [Example 173] | 0.49 | 69 |  | 1.1
25 | CNc1nccc(C(=O)Nc2cnccc2OCC(F)(F)F)n1 [Example 135, 2-(Methylamino)-N-(4-(2,2,2-trifluoroethoxy)pyridin-3-yl)pyrimidine-4-carboxamide] | 14 | 400 | 3.6 | 
26 | O=C(Nc1cnccc1-c1ccccc1)c1ccnc(Nc2ccc(Cl)cc2Cl)n1 [Example 23, 2-((2,4-Dichlorophenyl)amino)-N-(4-phenylpyridin-3-yl)pyrimidine-4-carboxamide] | 4.8 | 1600 | 6.2 | 
27 | CC(Nc1nccc(C(=O)Nc2cnccc2-c2ccc(F)cc2)n1)C(C)(C)C (stereo not drawn) [Example 157, 2-((3,3-Dimethylbutan-2-yl)amino)-N-(4-(4-fluorophenyl)pyridin-3-yl)pyrimidine-4-carboxamide] | 0.72 | 410 | 2.2 | 
28 | Cc1cc(Nc2nccc(C(=O)Nc3cnccc3-c3ccccc3)n2)ccc1F [Example 17, 2-((4-Fluoro-3-methylphenyl)amino)-N-(4-phenylpyridin-3-yl)pyrimidine-4-carboxamide] | 0.47 | 60 | 0.64 | 
29 | N#Cc1ccc(Nc2nccc(C(=O)Nc3cnccc3OCC(F)(F)F)n2)cn1 [Example 82, 2-((6-Cyanopyridin-3-yl)amino)-N-(4-(2,2,2-trifluoroethoxy)pyridin-3-yl)pyrimidine-4-carboxamide] | 0.09 | 2.8 | 0.18 | 
30 | O=C(Nc1cncnc1OCC(F)(F)F)c1ccnc(Nc2ccc(OC(F)F)nc2)n1 [Example 73, 2-((6-(Difluoromethoxy)pyridin-3-yl)amino)-N-(4-(2,2,2-trifluoroethoxy)pyrimidin-5-yl)pyrimidine-4-carboxamide] | 0.18 | 22 | 0.26 | 
31 | O=C(Nc1cnc(F)cc1N1CCOCC1)c1ccnc(Nc2cccc(OC(F)(F)F)c2)n1 [Example 172, N-(6-Fluoro-4-morpholinopyridin-3-yl)-2-((3-(trifluoromethoxy)phenyl)amino)pyrimidine-4-carboxamide] | 0.46 | 160 | 0.89 | 
32 | CC(C)(C)[C@H]1CC[C@@H](Nc2nccc(C(=O)Nc3cnccc3OCC(F)(F)F)n2)CC1 [Example 122] | 12 | 4200 | 8.4 | 
33 | O=C(Nc1cnc(F)cc1N1CCOCC1)c1ccnc(Nc2ccc(Cl)cc2F)n1 [Example 171, 2-((4-Chloro-2-fluorophenyl)amino)-N-(6-fluoro-4-morpholinopyridin-3-yl)pyrimidine-4-carboxamide] | 0.47 | 59 |  | 0.58
34 | O=C(Nc1cnccc1OCC(F)(F)F)c1ccnc(Nc2ccc(OC(F)F)nc2)n1 [Example 63, 2-((6-(Difluoromethoxy)pyridin-3-yl)amino)-N-(4-(2,2,2-trifluoroethoxy)pyridin-3-yl)pyrimidine-4-carboxamide] | 0.13 | 3 | 0.18 | 
